pIC50: −log10 of the molar value.
Legend:
[1] = molecular target: T1, Histone deacetylase 8 (Homo sapiens, UniProt Q9BY41); test: Inhibition of recombinant human HDAC8 using Ac-peptide as substrate preincubated for 15 mins followed by substrate addition for 240 mins and measured after 120 mins of trypsin addition
T1 sequence (Q9BY41 whole entry): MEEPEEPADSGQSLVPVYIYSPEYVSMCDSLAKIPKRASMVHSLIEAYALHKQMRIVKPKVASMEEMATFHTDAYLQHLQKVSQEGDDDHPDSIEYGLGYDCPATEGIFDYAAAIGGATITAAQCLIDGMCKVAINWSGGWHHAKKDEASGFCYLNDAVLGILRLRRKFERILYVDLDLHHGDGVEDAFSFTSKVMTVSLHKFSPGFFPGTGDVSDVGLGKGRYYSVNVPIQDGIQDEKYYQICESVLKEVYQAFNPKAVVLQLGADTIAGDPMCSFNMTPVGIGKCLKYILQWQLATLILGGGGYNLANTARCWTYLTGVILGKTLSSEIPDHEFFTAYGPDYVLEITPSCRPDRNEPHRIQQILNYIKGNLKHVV

[2] = AUC (0 to t) in female Balb/c mouse at 5 mg/kg, ip measured after 24 hrs by LC-MS/MS analysis; format: ADME, organism-based; conditions: in vivo
[3] = molecular target: T2, NAD-dependent protein deacetylase sirtuin-2 (Homo sapiens, UniProt Q8IXJ6); test: Inhibition of recombinant human SIRT2 using Ac-peptide as substrate preincubated for 15 mins followed by substrate addition for 240 mins and measured after 120 mins of trypsin addition
T2 sequence (Q8IXJ6 whole entry): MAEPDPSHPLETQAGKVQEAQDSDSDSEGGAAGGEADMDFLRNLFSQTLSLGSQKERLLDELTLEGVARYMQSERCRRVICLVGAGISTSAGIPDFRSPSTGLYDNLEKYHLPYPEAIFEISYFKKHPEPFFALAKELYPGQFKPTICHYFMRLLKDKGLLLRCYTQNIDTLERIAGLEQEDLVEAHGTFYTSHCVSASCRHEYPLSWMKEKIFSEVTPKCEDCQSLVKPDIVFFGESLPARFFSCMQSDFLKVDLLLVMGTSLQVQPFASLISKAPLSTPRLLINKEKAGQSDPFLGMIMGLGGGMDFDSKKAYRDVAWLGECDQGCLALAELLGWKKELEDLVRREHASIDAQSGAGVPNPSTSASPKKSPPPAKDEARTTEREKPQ

## Cc1ccc2c(CN[C@H]3CC[C@@H](Nc4ncc(C(=O)NO)cn4)CC3)cn(C)c2c1.Cl
[1]
  pIC50: 7.37
[2]
  AUC(0-t) at 24 h: 833 ng·h/mL
[3]
  pIC50: < 5.00

Reference: ChEMBL document CHEMBL6096636 (Bioorg Med Chem, 2024)
